This note sets out measurements from ChEMBL document CHEMBL3046670, “Synthesis of Esters, Amides, N-Alkylamides and N, N-Dialkylamides of 2, 3-Dimethyl-5-(2, 5-disubstituted phenylaminocarbonyl)-6-pyrazinecarboxylic Acid and Their Phytotoxicity” (1992).

What all share (format): functional
Assay [1] deals with Eleusine indica. As to the kind of experiment: Inhibition of Eleusine indica seed germination at 100 ppm after 5 days relative to control. The following applies: for inhibition at 100 ppm: 120 h.
For assay [2], the system named is Lactuca sativa. As to the kind of experiment: Inhibition of Lactuca sativa longifolia Lams (lettuce) seed germination at 100 ppm after 5 days relative to control. The following applies: for inhibition at 100 ppm: 120 h.
Assay [3] relates to Lactuca sativa. As to the kind of experiment: Inhibition of Lactuca sativa longifolia Lams (lettuce) seed germination at 300 ppm after 5 days relative to control. Conditions: for inhibition at 300 ppm: 120 h.
The test system of another assay is Sagittaria pygmaea. As to the kind of experiment: Herbicidal activity against Sagittaria pygmaea at 50 g a.i./a measured after 3 weeks.
A further assay relates to Cyperus serotinus. Nature of the assay: Herbicidal activity against Cyperus serotinus at 50 g a.i./a measured after 3 weeks.
Assay [4] has as its system Schoenoplectiella juncoides. Nature of the assay: Pre-emergence herbicidal activity against Schoenoplectiella juncoides at 50 g a.i./a measured after 3 weeks.
The test system of another assay is Echinochloa crus-galli. As to the kind of experiment: Herbicidal activity against Echinochloa crus-galli (barnyard grass) at 50 g a.i./a measured after 2 weeks.
In assay [5] the test system is Schoenoplectiella juncoides. Nature of the assay: Herbicidal activity against Schoenoplectiella juncoides at 50 g a.i./a applied at one-leaf stage by foliar application measured after 3 weeks.
The test system of another assay is Oryza sativa. Nature of the assay: Herbicidal activity against Oryza sativa (rice) at 50 g a.i./a applied at one-leaf stage by foliar application measured after 3 weeks.
For assay [6], the system named is Eleusine indica. As to the kind of experiment: Inhibition of Eleusine indica germination at 300 ppm after 5 days relative to control. Conditions: for inhibition at 300 ppm: 120 h.
The test system of assay [7] is Lactuca sativa. Nature of the assay: Inhibition of Lactuca sativa longifolia Lams (lettuce) seed germination at 50 ppm after 5 days relative to control. Conditions: for inhibition at 50 ppm: 120 h.
Assay [8] has as its system Eleusine indica. Nature of the assay: Inhibition of Eleusine indica seed germination at 50 ppm after 5 days relative to control. Conditions: for inhibition at 50 ppm: 120 h.

SMILES strings stand for the structures. Active and inactive are the calls of the source. The rule behind the calls is not given here.

One may read the inhibition as the change of the read-out against control, counted positive when it falls. With `CCCOC(=O)c1nc(C)c(C)nc1C(=O)Nc1cc(Cl)ccc1Cl`, the inhibition result in the assay with Eleusine indica [1] is “inactive”.

Turning to `CCCCNC(=O)c1nc(C)c(C)nc1C(=O)Nc1cc(C)ccc1C`, the inhibition at 100 ppm in the assay on Lactuca sativa [2] worked out at 35%; with Eleusine indica [1], 39%. Moreover, the inhibition at 300 ppm in the assay with Lactuca sativa [3] turned out to be 34%; with Eleusine indica [6], 40%. The Activity in the assay with Sagittaria pygmaea came to 90%; in the assay on Cyperus serotinus it was 100%; in assay [4], 100%; with Echinochloa crus-galli, 80%; in assay [5] it was 60%; in the assay on Oryza sativa, 100%.

As for `CCCCCN(CCCCC)C(=O)c1nc(C)c(C)nc1C(=O)Nc1cc(C)ccc1C`, the inhibition entry with Lactuca sativa [7], in the assay with Lactuca sativa [2], in the assay with Lactuca sativa [3], in the assay with Eleusine indica [8], in the assay on Eleusine indica [1] and in the assay with Eleusine indica [6] was “inactive” each time.

As for `CCCCCOC(=O)c1nc(C)c(C)nc1C(=O)Nc1cc(C)ccc1C`, the inhibition result in the assay on Lactuca sativa [7], in the assay with Lactuca sativa [2], with Lactuca sativa [3], in the assay on Eleusine indica [8], in the assay with Eleusine indica [1] and with Eleusine indica [6] was “inactive” throughout.

Regarding `COC(=O)c1nc(C)c(C)nc1C(=O)Nc1cc(Cl)ccc1Cl`, the inhibition result in the assay with Eleusine indica [1] is “inactive”.

Turning to `CCC(C)OC(=O)c1nc(C)c(C)nc1C(=O)Nc1cc(C)ccc1C` (stereo not given), the inhibition at 100 ppm with Lactuca sativa [2] came out at 32%; with Eleusine indica [1] it was 13%. For the same compound, the results for the inhibition at 300 ppm in the assay with Lactuca sativa [3] and in the assay on Eleusine indica [6] were 36% and 15%, respectively.

For the compound `CCCCOC(=O)c1nc(C)c(C)nc1C(=O)Nc1cc(C)ccc1C`, the inhibition entry with Lactuca sativa [7], with Lactuca sativa [2], with Lactuca sativa [3], with Eleusine indica [8], in the assay on Eleusine indica [1] and in the assay on Eleusine indica [6] was “inactive” in each case.

Turning to `CCCCN(CCCC)C(=O)c1nc(C)c(C)nc1C(=O)Nc1cc(C)ccc1C`, the inhibition result with Lactuca sativa [7], in the assay with Lactuca sativa [2], with Lactuca sativa [3], in the assay on Eleusine indica [8], in the assay with Eleusine indica [1] and with Eleusine indica [6] was “inactive” throughout.

`Cc1ccc(C)c(NC(=O)c2nc(C)c(C)nc2C(=O)OCC(C)C)c1`: the inhibition result with Lactuca sativa [7], with Lactuca sativa [2], in the assay with Lactuca sativa [3], in the assay on Eleusine indica [8], in the assay on Eleusine indica [1] and in the assay with Eleusine indica [6] was “inactive” each time.

`Cc1ccc(C)c(NC(=O)c2nc(C)c(C)nc2C(=O)OC(C)C)c1` had an inhibition at 100 ppm in the assay on Eleusine indica [1] of 20%.

Consider `CCCC(C)OC(=O)c1nc(C)c(C)nc1C(=O)Nc1cc(C)ccc1C` (stereo not given), for which the inhibition result with Lactuca sativa [7] and in the assay on Eleusine indica [8] was “inactive” throughout. For the same compound, the inhibition at 100 ppm amounted to 44% in the assay on Lactuca sativa [2] and 32% in the assay on Eleusine indica [1]. Besides, the inhibition at 300 ppm amounted to 50% with Lactuca sativa [3] and 33% in the assay on Eleusine indica [6].

With `CCOC(=O)c1nc(C)c(C)nc1C(=O)Nc1cc(Cl)ccc1Cl`, the inhibition entry in the assay with Eleusine indica [1] was “inactive”.

Turning to `Cc1ccc(C)c(NC(=O)c2nc(C)c(C)nc2C(=O)NC(C)C)c1`, the inhibition at 50 ppm in the assay on Lactuca sativa [7] worked out at 58%; in the assay with Eleusine indica [8] it was 30%. Besides, the inhibition at 100 ppm amounted to 66% with Lactuca sativa [2] and 30% with Eleusine indica [1]. Further, the inhibition at 300 ppm with Lactuca sativa [3] was 68%; in the assay with Eleusine indica [6], 36%. Moreover, the Activity is on record as 0% with Sagittaria pygmaea; 0% with Cyperus serotinus; 50% in assay [4]; 0% in the assay with Echinochloa crus-galli; 30% in assay [5]; 70% in the assay with Oryza sativa.

Consider `Cc1ccc(C)c(NC(=O)c2nc(C)c(C)nc2C(=O)N(C)C)c1`, for which the inhibition result with Lactuca sativa [7], in the assay with Lactuca sativa [2], in the assay with Lactuca sativa [3], in the assay with Eleusine indica [8], with Eleusine indica [1] and in the assay on Eleusine indica [6] was “inactive” in each case.

Regarding `Cc1ccc(C)c(NC(=O)c2nc(C)c(C)nc2C(=O)NCCC(C)C)c1`, the results for the inhibition at 50 ppm in the assay on Lactuca sativa [7] and in the assay with Eleusine indica [8] were 43% and 32%, respectively. Moreover, the inhibition at 100 ppm in the assay with Lactuca sativa [2] was 41%; in the assay with Eleusine indica [1], 34%. In addition, the inhibition at 300 ppm was 47% in the assay on Lactuca sativa [3] and 40% in the assay with Eleusine indica [6]. In addition, the Activity is given as 85% in the assay with Sagittaria pygmaea; 80% with Cyperus serotinus; 100% in assay [4]; 70% in the assay on Echinochloa crus-galli; 20% in [5]; 99% with Oryza sativa.

As for `CCCN(CCC)C(=O)c1nc(C)c(C)nc1C(=O)Nc1cc(C)ccc1C`, the inhibition result with Lactuca sativa [7], in the assay on Lactuca sativa [2], in the assay on Lactuca sativa [3], with Eleusine indica [8], with Eleusine indica [1] and in the assay on Eleusine indica [6] was “inactive” throughout.

Regarding `CCN(CC)C(=O)c1nc(C)c(C)nc1C(=O)Nc1cc(C)ccc1C`, the inhibition entry in the assay with Lactuca sativa [7], in the assay on Lactuca sativa [2], in the assay on Lactuca sativa [3], in the assay on Eleusine indica [8], in the assay with Eleusine indica [1] and in the assay on Eleusine indica [6] was “inactive” each time.

For `CCC(C)NC(=O)c1nc(C)c(C)nc1C(=O)Nc1cc(C)ccc1C` (stereo not given), the figures for the inhibition at 50 ppm in the assay on Lactuca sativa [7] and with Eleusine indica [8] were 61% and 38%, respectively. In addition, the inhibition at 100 ppm was found to be 65% in the assay on Lactuca sativa [2] and 41% with Eleusine indica [1]. Besides, the inhibition at 300 ppm is 72% in the assay on Lactuca sativa [3] and 44% in the assay on Eleusine indica [6]. The Activity is 75% in the assay on Sagittaria pygmaea; 95% with Cyperus serotinus; 100% in assay [4]; 70% in the assay with Echinochloa crus-galli; 50% in assay [5]; 99% in the assay with Oryza sativa.

Consider `Cc1ccc(C)c(NC(=O)c2nc(C)c(C)nc2C(=O)OCCC(C)C)c1`, for which the inhibition result with Lactuca sativa [7], in the assay with Lactuca sativa [2], in the assay on Lactuca sativa [3], with Eleusine indica [8], in the assay with Eleusine indica [1] and in the assay on Eleusine indica [6] was “inactive” throughout.

As to `CCCNC(=O)c1nc(C)c(C)nc1C(=O)Nc1cc(C)ccc1C`, the inhibition at 50 ppm worked out at 43% in the assay on Lactuca sativa [7] and 42% with Eleusine indica [8]. The inhibition at 100 ppm in the assay on Lactuca sativa [2] is 56%; in the assay with Eleusine indica [1], 47%. The inhibition at 300 ppm was 54% in the assay with Lactuca sativa [3] and 47% with Eleusine indica [6]. The Activity in the assay with Sagittaria pygmaea is given as 0%; with Cyperus serotinus, 90%; in assay [4] it was 80%; with Echinochloa crus-galli, 50%; in [5] it was 40%; with Oryza sativa, 95%.

As to `Cc1nc(C(=O)Nc2cc(Cl)ccc2Cl)c(C(=O)OC(C)C)nc1C`, the inhibition result in the assay on Eleusine indica [1] was “inactive”.

Regarding `Cc1ccc(C)c(NC(=O)c2nc(C)c(C)nc2C(=O)NCC(C)C)c1`, the values for the inhibition at 50 ppm with Lactuca sativa [7] and in the assay on Eleusine indica [8] were 55% and 53%, respectively. Besides, the figures for the inhibition at 100 ppm in the assay on Lactuca sativa [2] and in the assay on Eleusine indica [1] were 59% and 47%, respectively. Also, the inhibition at 300 ppm in the assay with Lactuca sativa [3] was 62%; in the assay with Eleusine indica [6], 50%. In addition, the Activity is recorded as 95% with Sagittaria pygmaea; 100% in the assay on Cyperus serotinus; 10% in [4]; 90% in the assay on Echinochloa crus-galli; 80% in assay [5]; 99% in the assay with Oryza sativa.

Compound `Cc1ccc(C)c(NC(=O)c2nc(C)c(C)nc2C(N)=O)c1` displayed an inhibition at 100 ppm in the assay with Eleusine indica [1] of 20%.
